Read-outs that look alike come from different tables or passages of the source.
Legend:
Assay type in all cases: in vivo
6C3HED lymphosarcoma = assay: animal or person
HC1 = system: HC1
Description: (§1) The compounds were tested in C3H mice bearing a 6C3HED lymphosarcoma, also known as the Gardner lymphosarcoma (GLS), and in a variety of human tumor xenografts in CD1 nu/nu mice, including CX-1, LX-1, HXGC3, and VRC5. The 6C3HED lymphosarcoma was obtained from the Division of Cancer Treatment, National […] Institute, Tumor Bank, maintained at E. G. and G. Mason Research (Worcester, Mass.). The CX-1 human colon carcinoma and the LX-1 human lung carcinoma xenografts were obtained from the National Cancer Institute. The HXGC3 and VRC5 human colon xenografts were obtained from Dr. P. J. Houghton, St. Jude Children's Hospital in Memphis (see Br. J. Cancer, 37, 213 (1978)). First passage tumor was stored in liquid nitrogen using standard techniques. The transplanted tumor was reestablished from the Tumor Bank every six months or as needed. The tumor was maintained by serial passage twice weekly in C3H mice.
(§2) In the procedure the tumor was removed from passage animals and minced into 1- to 3-mm square fragments using sterile techniques. Tumor pieces were checked for sterility using both Antibiotic Medium 1 and Brain Heart Infusion (Difco, Detroit, Mich.). Recipient mice were shaved and tumor pieces were implanted subcutaneously in the auxiliary region by trocar. Drug therapy on the appropriate schedule was initiated on the day after tumor implant for 6C3HED and after a seven (7) day delay for xenografts (or other delay as noted in Table 2). The compound being tested was mixed with 2.5% Emulphor EL620 from GAF Corporation (1:40 dilution in saline). Food and water were provided ad libitium. The drug was administered orally in 0.5 ml of 2.5% Emulphor (unless otherwise indicated). The tumor was measured the day after treatment ended with two dimensional measurements (width and length) of the tumor taken using automated digital calipers interfaced to a microcomputer. Approximate weight for the tumor was calculated using the following formula [Worzalla, J. F., et al., Invest. New Drugs, 8, 241 (1990], (tumor weight in mg)=(width in mm)^2 ×(length in mm)/2.
(§3) At least one control group of an equal number of mice was treated with the same volume of 2.5% Emulphor only. The percent inhibition was determined by subtracting the ratio of the mean tumor size of the test group relative to the control group from one and multiplying the result times 100.
(§4) The results of several experiments in mice bearing a 6C3HED lymphosarcoma (or other tumor where indicated) when the indicated compounds were administered are provided in Table 2. In Table 2, column 1 gives the Example number of the compound used, column 2 lists the dose level in mg/kg, column 3 provides the percent inhibition of tumor growth, column 4 gives the number of mice which died relative to the total number of animals in the group, column 5 gives the method of administration of the compound, and column 6 gives the dosage schedule. The protocol used with other tumors was the same as with the 6C3HED lymphosarcoma.

LX1 = system: LX1
Description: as §1, §2, §3, §4

[1] = oral, 500 mg/kg, BIDX 14, from day 14 after implant
[2] = oral, 3 mg/kg, BIDX 14, from day 7 after implant

Question: `Cc1ccc(S(=N)(=O)NC(=O)Nc2ccc(Cl)cc2)cc1` (centres unmarked) [Example 2, N-[[(4-chlorophenyl)amino]carbonyl]-4-methylbenzenesulfonimidamide] was tested. Which “Tox/Tot (mice which died / total)” value (6C3HED lymphosarcoma; IP, 150 mg/kg, DX 8) did it give?
Answer: 1/10

Question: What about the “Tox/Tot (mice which died / total)” value (6C3HED lymphosarcoma; IP, 300 mg/kg, DX 8) of the same compound?
Answer: 6/10

Question: What about the “Tox/Tot (mice which died / total)” value (6C3HED lymphosarcoma; IV, 12.5 mg/kg, DX 8) of the same compound?
Answer: 0/10

Question: And the “Tox/Tot (mice which died / total)” value (6C3HED lymphosarcoma; IV, 25 mg/kg, DX 8)?
Answer: 1/10

Question: What about the inhibition in vivo at 150 mg/kg (6C3HED lymphosarcoma; Mus musculus, 6C3HED, ip, read-out: % inhibition of tumor growth, IP, 150 mg/kg, DX 8) of the same compound?
Answer: 92%

Question: What about the inhibition in vivo at 300 mg/kg (6C3HED lymphosarcoma; Mus musculus, 6C3HED, ip, read-out: % inhibition of tumor growth, IP, 300 mg/kg, DX 8) of the same compound?
Answer: 98%

Question: And the inhibition in vivo at 12.5 mg/kg (6C3HED lymphosarcoma; Mus musculus, 6C3HED, iv, read-out: % inhibition of tumor growth, IV, 12.5 mg/kg, DX 8)?
Answer: 36%

Question: What about the inhibition in vivo at 25 mg/kg (6C3HED lymphosarcoma; Mus musculus, 6C3HED, iv, read-out: % inhibition of tumor growth, IV, 25 mg/kg, DX 8) of the same compound?
Answer: 52%

Question: What about the inhibition in vivo at 50 mg/kg (6C3HED lymphosarcoma; Mus musculus, 6C3HED, po, read-out: % inhibition of tumor growth, oral, 50 mg/kg, BIDX 8) of the same compound?
Answer: 95%

Question: And the inhibition in vivo at 75 mg/kg (6C3HED lymphosarcoma; Mus musculus, 6C3HED, po, read-out: % inhibition of tumor growth, oral, 75 mg/kg, DX 8)?
Answer: 76%

Question: And the inhibition in vivo at 100 mg/kg (6C3HED lymphosarcoma; Mus musculus, 6C3HED, po, read-out: % inhibition of tumor growth, oral, 100 mg/kg, BIDX 8)?
Answer: 96%

Question: And the inhibition in vivo at 150 mg/kg (6C3HED lymphosarcoma; Mus musculus, 6C3HED, po, read-out: % inhibition of tumor growth, oral, 150 mg/kg, DX 8)?
Answer: 74%

Question: What about the inhibition in vivo at 200 mg/kg (6C3HED lymphosarcoma; Mus musculus, 6C3HED, po, read-out: % inhibition of tumor growth, oral, 200 mg/kg, BIDX 8) of the same compound?
Answer: 98%

Question: And the inhibition in vivo at 300 mg/kg (6C3HED lymphosarcoma; Mus musculus, 6C3HED, po, read-out: % inhibition of tumor growth, oral, 300 mg/kg, DX 8)?
Answer: 82%

Question: And the inhibition in vivo at 400 mg/kg (6C3HED lymphosarcoma; Mus musculus, 6C3HED, po, read-out: % inhibition of tumor growth, oral, 400 mg/kg, BIDX 8)?
Answer: 99%

Question: What about the inhibition in vivo at 600 mg/kg (6C3HED lymphosarcoma; Mus musculus, 6C3HED, po, read-out: % inhibition of tumor growth, oral, 600 mg/kg, DX 8) of the same compound?
Answer: 99%

Question: And the inhibition in vivo at 800 mg/kg (6C3HED lymphosarcoma; Mus musculus, 6C3HED, po, read-out: % inhibition of tumor growth, oral, 800 mg/kg, BIDX 8)?
Answer: 99%

Question: And the inhibition in vivo at 1200 mg/kg (6C3HED lymphosarcoma; Mus musculus, 6C3HED, po, read-out: % inhibition of tumor growth, oral, 1200 mg/kg, DX 8)?
Answer: 100%

Question: And the “Tox/Tot (mice which died / total)” value (6C3HED lymphosarcoma; oral, 50 mg/kg, BIDX 8)?
Answer: 0/10

Question: And the “Tox/Tot (mice which died / total)” value (6C3HED lymphosarcoma; oral, 75 mg/kg, DX 8)?
Answer: 0/10

Question: And the “Tox/Tot (mice which died / total)” value (6C3HED lymphosarcoma; oral, 100 mg/kg, BIDX 8)?
Answer: 0/10

Question: What about the “% inhibition of tumor growth” value (6C3HED lymphosarcoma; oral, 150 mg/kg, DX 8) of the same compound?
Answer: 93%

Question: What about the “Tox/Tot (mice which died / total)” value (6C3HED lymphosarcoma; oral, 150 mg/kg, DX 8) of the same compound?
Answer: 0/10

Question: What about the “Tox/Tot (mice which died / total)” value (6C3HED lymphosarcoma; oral, 200 mg/kg, BIDX 8) of the same compound?
Answer: 0/10

Question: What about the “% inhibition of tumor growth” value (6C3HED lymphosarcoma; oral, 300 mg/kg, DX 8) of the same compound?
Answer: 95%

Question: What about the “Tox/Tot (mice which died / total)” value (6C3HED lymphosarcoma; oral, 300 mg/kg, DX 8) of the same compound?
Answer: 0/10

Question: What about the “Tox/Tot (mice which died / total)” value (6C3HED lymphosarcoma; oral, 400 mg/kg, BIDX 8) of the same compound?
Answer: 0/10

Question: What about the “Tox/Tot (mice which died / total)” value (6C3HED lymphosarcoma; oral, 600 mg/kg, DX 8) of the same compound?
Answer: 0/10

Question: What about the “Tox/Tot (mice which died / total)” value (6C3HED lymphosarcoma; oral, 800 mg/kg, BIDX 8) of the same compound?
Answer: 1/10

Question: And the “Tox/Tot (mice which died / total)” value (6C3HED lymphosarcoma; oral, 1200 mg/kg, DX 8)?
Answer: 0/10

Question: And the “Tox/Tot (mice which died / total)” value (HC1; oral, 250 mg/kg, BIDX 14, from day 14 after implant)?
Answer: 2/9

Question: What about the “% inhibition of tumor growth” value (HC1; [1]) of the same compound?
Answer: TOX

Question: What about the “Tox/Tot (mice which died / total)” value (HC1; [1]) of the same compound?
Answer: 9/9

Question: And the “% inhibition of tumor growth” value (HC1; po, 250 mg/kg, 336 h)?
Answer: 68%

Question: What about the “% inhibition of tumor growth” value (LX1; [2]) of the same compound?
Answer: 24%

Question: And the “Tox/Tot (mice which died / total)” value (LX1; [2])?
Answer: 0/10

Question: What about the “Tox/Tot (mice which died / total)” value (LX1; oral, 10 mg/kg, BIDX 14, from day 7 after implant) of the same compound?
Answer: 0/10

Question: And the “Tox/Tot (mice which died / total)” value (LX1; oral, 30 mg/kg, BIDX 14, from day 7 after implant)?
Answer: 0/10

Question: What about the “Tox/Tot (mice which died / total)” value (LX1; oral, 100 mg/kg, BIDX 14, from day 7 after implant) of the same compound?
Answer: 0/10

Question: What about the “Tox/Tot (mice which died / total)” value (LX1; oral, 300 mg/kg, BIDX 14, from day 7 after implant) of the same compound?
Answer: 5/10

Question: And the “% inhibition of tumor growth” value (LX1; po, 10 mg/kg, 168 h)?
Answer: 18%

Question: And the “% inhibition of tumor growth” value (LX1; po, 30 mg/kg, 168 h)?
Answer: 28%

Question: What about the “% inhibition of tumor growth” value (LX1; po, 100 mg/kg, 168 h) of the same compound?
Answer: 51%

Question: And the “% inhibition of tumor growth” value (LX1; po, 300 mg/kg, 168 h)?
Answer: 66%
